Assay results: PubChem BioAssay AID256 (DTP/NCI, 2004)
Values joined by “and” are separate entries in the source; they are usually repeats but may differ in a detail not shown here. Equal entries are not always repeated. Inconclusive results and toxic doses are left out.

Test system: CD2F1 mice, L1210 leukemia ip, survival T/C
Experiment: NCI In Vivo Anticancer Drug Screen. Data for tumor model L1210 Leukemia (intraperitoneal) in CD2F1 (CDF1) mice
Details: higher = longer survival
How it was run: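 Implant tumor; dose compound or vehicle; measure endpoint in both groups; report treated divided by control.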

[1] = endpoint: mean survival time, dose: 12.5 mg/kg/injection, schedule: Q01DX009 (ip), vehicle: saline with Tween-80
[2] = endpoint: mean survival time, dose: 25.0 mg/kg/injection, schedule: Q01DX009 (ip), vehicle: saline with Tween-80
[3] = endpoint: mean survival time, dose: 50.0 mg/kg/injection, schedule: Q01DX009 (ip), vehicle: other
[4] = endpoint: mean survival time, dose: 50.0 mg/kg/injection, schedule: Q01DX009 (ip), vehicle: saline with Tween-80
[5] = endpoint: mean survival time, dose: 100.0 mg/kg/injection, schedule: Q01DX009 (ip), vehicle: other
[6] = endpoint: mean survival time, dose: 100.0 mg/kg/injection, schedule: Q01DX009 (ip), vehicle: saline with Tween-80
[7] = endpoint: mean survival time, dose: 200.0 mg/kg/injection, schedule: Q01DX009 (ip), vehicle: other
[8] = endpoint: mean survival time, dose: 200.0 mg/kg/injection, schedule: Q01DX009 (ip), vehicle: saline with Tween-80
[9] = endpoint: mean survival time, dose: 100.0 mg/kg/injection, schedule: Q04DX002 (ip), vehicle: saline with Tween-80
[10] = endpoint: mean survival time, dose: 200.0 mg/kg/injection, schedule: Q04DX002 (ip), vehicle: saline with Tween-80
[11] = endpoint: mean survival time, dose: 200.0 mg/kg/injection, schedule: Q01DX001 (ip), vehicle: saline with Tween-80
[12] = endpoint: mean survival time, dose: 400.0 mg/kg/injection, schedule: Q04DX002 (ip), vehicle: saline with Tween-80
[13] = endpoint: mean survival time, dose: 100.0 mg/kg/injection, schedule: Q01DX001 (ip), vehicle: saline with Tween-80
[14] = endpoint: mean survival time, dose: 400.0 mg/kg/injection, schedule: Q01DX001 (ip), vehicle: saline with Tween-80
[15] = endpoint: mean survival time, dose: 400.0 mg/kg/injection, schedule: Q01DX009 (ip), vehicle: saline with Tween-80
[16] = endpoint: mean survival time, dose: 100.0 mg/kg/injection, schedule: Q04DX003 (ip), vehicle: saline with Tween-80
[17] = endpoint: mean survival time, dose: 200.0 mg/kg/injection, schedule: Q04DX003 (ip), vehicle: saline with Tween-80

## Nc1nc2n[nH]nc2c(=O)[nH]1
endpoint: mean survival time, dose: 0.78 mg/kg/injection, schedule: Q01DX009 (ip), vehicle: saline with Tween-80
  T/C: 103 % of control
endpoint: mean survival time, dose: 1.56 mg/kg/injection, schedule: Q01DX009 (ip), vehicle: saline with Tween-80
  T/C: 115 % of control
[1]
  T/C: 150 % of control
[2]
  T/C: 151 % of control
[3]
  T/C: 154 % of control
[4]
  T/C: 156 % of control and 158 % of control
endpoint: mean survival time, dose: 50.0 mg/kg/injection, schedule: Q03DX003 (ip), vehicle: other
  T/C: 120 % of control
endpoint: mean survival time, dose: 50.0 mg/kg/injection, schedule: Q04DX003 (ip), vehicle: other
  T/C: 111 % of control
endpoint: mean survival time, dose: 75.0 mg/kg/injection, schedule: Q01DX009 (ip), vehicle: saline with Tween-80
  T/C: 114 % of control
endpoint: mean survival time, dose: 100.0 mg/kg/injection, schedule: Q01DX001 (ip), vehicle: saline sonified
  T/C: 108 % of control
[5]
  T/C: 153 % of control
[6]
  T/C: 97 % of control and 107 % of control
endpoint: mean survival time, dose: 100.0 mg/kg/injection, schedule: Q04DX003 (ip), vehicle: other
  T/C: 123 % of control
endpoint: mean survival time, dose: 200.0 mg/kg/injection, schedule: Q01DX001 (ip), vehicle: saline sonified
  T/C: 108 % of control
endpoint: mean survival time, dose: 200.0 mg/kg/injection, schedule: Q01DX007 (ip), vehicle: other
  T/C: 150 % of control
[7]
  T/C: 153 % of control
endpoint: mean survival time, dose: 200.0 mg/kg/injection, schedule: Q01DX009 (ip), vehicle: saline sonified
  T/C: 106 % of control
[8]
  T/C: 97 % of control
endpoint: mean survival time, dose: 200.0 mg/kg/injection, schedule: Q03DX003 (ip), vehicle: other
  T/C: 120 % of control
endpoint: mean survival time, dose: 200.0 mg/kg/injection, schedule: Q04DX003 (ip), vehicle: other
  T/C: 119 % of control
endpoint: mean survival time, dose: 400.0 mg/kg/injection, schedule: Q01DX001 (ip), vehicle: saline sonified
  T/C: 112 % of control
endpoint: median survival time, dose: 50.0 mg/kg/injection, schedule: Q01DX009 (ip), vehicle: saline
  T/C: 164 % of control
endpoint: median survival time, dose: 100.0 mg/kg/injection, schedule: Q01DX009 (ip), vehicle: saline
  T/C: 164 % of control
endpoint: median survival time, dose: 200.0 mg/kg/injection, schedule: Q01DX009 (ip), vehicle: saline
  T/C: 164 % of control
endpoint: median survival time, dose: 400.0 mg/kg/injection, schedule: Q01DX009 (ip), vehicle: saline
  T/C: 111 % of control

## NCCCN1CCN(c2ccccc2)CC1
[9]
  T/C: 92 % of control
[10]
  T/C: 92 % of control

## [Cl][Hg][Cl]
endpoint: median survival time, dose: 0.39 mg/kg/injection, schedule: Q01DX009 (ip), vehicle: saline
  T/C: 101 % of control
endpoint: median survival time, dose: 0.78 mg/kg/injection, schedule: Q01DX009 (ip), vehicle: saline
  T/C: 97 % of control
endpoint: median survival time, dose: 1.56 mg/kg/injection, schedule: Q01DX009 (ip), vehicle: saline
  T/C: 101 % of control
endpoint: median survival time, dose: 3.12 mg/kg/injection, schedule: Q01DX009 (ip), vehicle: saline
  T/C: 92 % of control

## C[C@H]1CP(c2ccccc2)(c2ccccc2)(c2ccccc2)O[C@@]1(C(=O)c1ccccc1)c1ccccc1
[11]
  T/C: 91 % of control

## Cc1nc(C)c(C#N)c(=O)[nH]1
[9]
  T/C: 97 % of control
[10]
  T/C: 97 % of control
[12]
  T/C: 97 % of control

## Cc1ccc(NC(=O)OCCOc2ccccc2Cl)cc1[N+](=O)[O-]
[1]
  T/C: 98 % of control
[2]
  T/C: 103 % of control
[4]
  T/C: 88 % of control and 103 % of control

## O=C1C(=O)c2cccc3cccc1c23
[13]
  T/C: 100 % of control
[11]
  T/C: 92 % of control
[14]
  T/C: 97 % of control

## CCOC(=O)C(OCC)c1ccccc1 (configuration not stated)
[6]
  T/C: 105 % of control
[8]
  T/C: 101 % of control
[15]
  T/C: 95 % of control

## CCCCCCCCCCCC(=O)OCCN(C=O)C[n+]1ccccc1
endpoint: mean survival time, dose: 100.0 mg/kg/injection, schedule: Q04DX002 (ip), vehicle: saline
  T/C: 101 % of control

## CCCC(=O)Nc1ncnc2c1nc(SCc1ccccc1)n2C1OC2COP(=O)(O)OC2C1OC(=O)CCC (configuration not stated)
endpoint: mean survival time, dose: 6.25 mg/kg/injection, schedule: Q01DX005 (ip), vehicle: water
  T/C: 101 % of control
endpoint: mean survival time, dose: 12.5 mg/kg/injection, schedule: Q01DX005 (ip), vehicle: water
  T/C: 93 % of control
endpoint: mean survival time, dose: 25.0 mg/kg/injection, schedule: Q01DX005 (ip), vehicle: water
  T/C: 93 % of control
endpoint: mean survival time, dose: 50.0 mg/kg/injection, schedule: Q01DX005 (ip), vehicle: water
  T/C: 101 % of control
endpoint: mean survival time, dose: 100.0 mg/kg/injection, schedule: Q01DX005 (ip), vehicle: water
  T/C: 101 % of control

## Cc1nc2c(nc1C)C(=O)C(N1CCOCC1)=CC2=O
endpoint: mean survival time, dose: 6.25 mg/kg/injection, schedule: Q04DX003 (ip), vehicle: saline
  T/C: 100 % of control
endpoint: mean survival time, dose: 12.5 mg/kg/injection, schedule: Q01DX001 (ip), vehicle: saline
  T/C: 87 % of control
endpoint: mean survival time, dose: 12.5 mg/kg/injection, schedule: Q04DX003 (ip), vehicle: saline
  T/C: 100 % of control
endpoint: mean survival time, dose: 25.0 mg/kg/injection, schedule: Q01DX001 (ip), vehicle: saline
  T/C: 107 % of control
endpoint: mean survival time, dose: 25.0 mg/kg/injection, schedule: Q04DX003 (ip), vehicle: saline
  T/C: 98 % of control
endpoint: mean survival time, dose: 35.0 mg/kg/injection, schedule: Q04DX003 (ip), vehicle: saline
  T/C: 88 % of control
endpoint: mean survival time, dose: 55.0 mg/kg/injection, schedule: Q04DX003 (ip), vehicle: saline
  T/C: 91 % of control
endpoint: mean survival time, dose: 80.0 mg/kg/injection, schedule: Q04DX003 (ip), vehicle: saline
  T/C: 86 % of control

## COC(=O)C1(C)CCCC2(C)C1CCC13C2CC1C1(C(C)C)OC31 (configuration not stated)
[16]
  T/C: 89 % of control
[17]
  T/C: 92 % of control

## CC(C)(C)c1ccc(O)c(Sc2cc(C(C)(C)C)ccc2O)c1
[3]
  T/C: 96 % of control
[5]
  T/C: 98 % of control
[6]
  T/C: 98 % of control
[7]
  T/C: 101 % of control
[8]
  T/C: 103 % of control
[15]
  T/C: 94 % of control

## COC(=O)C(Cl)(Cl)N=Nc1c(Cl)cc(Cl)c(C)c1Cl
endpoint: mean survival time, dose: 6.25 mg/kg/injection, schedule: Q01DX009 (ip), vehicle: saline with Tween-80
  T/C: 96 % of control
endpoint: mean survival time, dose: 6.25 mg/kg/injection, schedule: Q01DX009 (ip), vehicle: saline
  T/C: 93 % of control
[1]
  T/C: 100 % of control
endpoint: mean survival time, dose: 12.5 mg/kg/injection, schedule: Q01DX009 (ip), vehicle: saline
  T/C: 98 % of control
[2]
  T/C: 97 % of control
endpoint: mean survival time, dose: 25.0 mg/kg/injection, schedule: Q01DX009 (ip), vehicle: saline
  T/C: 93 % of control
[4]
  T/C: 94 % of control
endpoint: mean survival time, dose: 50.0 mg/kg/injection, schedule: Q01DX009 (ip), vehicle: saline
  T/C: 98 % of control
[6]
  T/C: 102 % of control
endpoint: mean survival time, dose: 100.0 mg/kg/injection, schedule: Q01DX009 (ip), vehicle: saline
  T/C: 90 % of control
[8]
  T/C: 86 % of control
endpoint: mean survival time, dose: 200.0 mg/kg/injection, schedule: Q01DX009 (ip), vehicle: saline
  T/C: 86 % of control

## CCCCSC(=O)Nc1ccccc1
[9]
  T/C: 95 % of control
[10]
  T/C: 92 % of control
[12]
  T/C: 92 % of control

## Cc1ccnc(N/C=C/c2cc[n+](C)cc2)c1
endpoint: mean survival time, dose: 75.0 mg/kg/injection, schedule: Q01DX001 (ip), vehicle: saline
  T/C: 105 % of control
endpoint: mean survival time, dose: 150.0 mg/kg/injection, schedule: Q01DX001 (ip), vehicle: saline
  T/C: 111 % of control
endpoint: mean survival time, dose: 300.0 mg/kg/injection, schedule: Q01DX001 (ip), vehicle: saline
  T/C: 114 % of control

## Cc1cc(C)cc(OCCOCCOc2cc(C)cc(C)c2)c1
[16]
  T/C: 94 % of control
[17]
  T/C: 97 % of control
endpoint: mean survival time, dose: 400.0 mg/kg/injection, schedule: Q04DX003 (ip), vehicle: saline with Tween-80
  T/C: 100 % of control

## O=C(CCl)NCCCCNC(=O)CCl
endpoint: mean survival time, dose: 100.0 mg/kg/injection, schedule: Q01DX001 (ip), vehicle: saline
  T/C: 101 % of control
endpoint: mean survival time, dose: 200.0 mg/kg/injection, schedule: Q01DX001 (ip), vehicle: saline
  T/C: 98 % of control
endpoint: mean survival time, dose: 400.0 mg/kg/injection, schedule: Q01DX001 (ip), vehicle: saline
  T/C: 100 % of control

## CSCCSC
[13]
  T/C: 104 % of control
[11]
  T/C: 98 % of control
[14]
  T/C: 96 % of control

## CCCCOc1nc(-c2ccncc2)nc(N(C)C)n1
endpoint: mean survival time, dose: 16.0 mg/kg/injection, schedule: Q04DX002 (ip), vehicle: saline
  T/C: 92 % of control
endpoint: mean survival time, dose: 31.0 mg/kg/injection, schedule: Q04DX002 (ip), vehicle: saline
  T/C: 92 % of control
endpoint: mean survival time, dose: 63.0 mg/kg/injection, schedule: Q04DX002 (ip), vehicle: saline
  T/C: 100 % of control
endpoint: mean survival time, dose: 100.0 mg/kg/injection, schedule: Q01DX002 (ip), vehicle: saline
  T/C: 100 % of control
